Measurements taken from ChEMBL document CHEMBL5528009, “Benzothiozinone derivatives with anti-tubercular Activity-Further side chain investigation” (Eur J Med Chem, 2024).

Key:
[1] = system: Mycobacterium tuberculosis; test: Antitubercular activity against multidrug-resistant Mycobacterium tuberculosis clinical isolate 16,121; assay type: functional
[2] = system: Mycobacterium tuberculosis; test: Antitubercular activity against multidrug-resistant Mycobacterium tuberculosis clinical isolate 16,030; assay type: functional

| Structure (SMILES) | MIC [1] [µg/mL] | MIC [2] [µg/mL] |
| --- | --- | --- |
| CN(CC#CC1CCCCC1)c1nc(=O)c2cc(C(F)(F)F)cc([N+](=O)[O-])c2s1 | < 0.016 | < 0.016 |
| NNC(=O)c1ccncc1 [ISONIAZID] | > 10 | > 10 |
| CO[C@H]1/C=C/O[C@@]2(C)Oc3c(C)c(O)c4c(O)c(c(/C=N/N5CCN(C)CC5)c(O)c4c3C2=O)NC(=O)/C(C)=C\C=C\[C@H](C)[C@H](O)[C@@H](C)[C@@H](O)[C@@H](C)[C@H](OC(C)=O)[C@@H]1C [RIFAMPIN] | > 10 | > 10 |
| CN(CC#Cc1ccccc1)c1nc(=O)c2cc(C(F)(F)F)cc([N+](=O)[O-])c2s1 | < 0.016 | < 0.016 |
| CN(CC#Cc1cscn1)c1nc(=O)c2cc(C(F)(F)F)cc([N+](=O)[O-])c2s1 | < 0.016 | < 0.016 |
